Values of other authors in US8263648B2, “Diebenzofuran derivatives as inhibitors of PDE-4 and PDE-10” (Mylan Laboratories Ltd., priority 2006, dated 2012).

What was measured:
[1] = target: PDE10A1 (Homo sapiens, UniProt Q9Y233); details: substrate of PDE10A1, a splice variant of PDE10
[2] = oral dosages of up to 100 mg/kg

PDE10A1, sequence (Q9Y233 1-779 isoform Q9Y233-1): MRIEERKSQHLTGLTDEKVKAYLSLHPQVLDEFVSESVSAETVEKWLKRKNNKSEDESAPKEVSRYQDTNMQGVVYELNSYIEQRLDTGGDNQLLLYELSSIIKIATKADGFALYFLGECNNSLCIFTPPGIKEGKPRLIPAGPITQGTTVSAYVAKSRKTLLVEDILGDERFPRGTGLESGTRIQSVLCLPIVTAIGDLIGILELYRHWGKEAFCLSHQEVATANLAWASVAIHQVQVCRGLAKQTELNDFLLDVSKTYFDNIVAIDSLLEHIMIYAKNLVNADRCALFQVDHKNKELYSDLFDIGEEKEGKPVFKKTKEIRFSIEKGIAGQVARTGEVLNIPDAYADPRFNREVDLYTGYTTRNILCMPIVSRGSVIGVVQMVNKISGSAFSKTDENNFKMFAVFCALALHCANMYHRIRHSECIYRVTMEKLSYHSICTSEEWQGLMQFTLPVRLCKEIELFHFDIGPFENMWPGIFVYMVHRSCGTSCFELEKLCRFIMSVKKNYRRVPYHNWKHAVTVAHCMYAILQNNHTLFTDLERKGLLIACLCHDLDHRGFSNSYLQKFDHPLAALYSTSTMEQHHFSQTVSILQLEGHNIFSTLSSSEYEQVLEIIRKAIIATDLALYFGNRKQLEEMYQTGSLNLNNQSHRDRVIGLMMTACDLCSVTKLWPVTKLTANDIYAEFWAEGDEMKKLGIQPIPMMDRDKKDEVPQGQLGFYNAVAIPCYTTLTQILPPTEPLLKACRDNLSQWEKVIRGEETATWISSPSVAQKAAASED

Km [1] [µM]	SMILES	emetic effect [2]
3	Nc1nc2c(ncn2[C@@H]2O[C@@H]3COP(=O)(O)O[C@H]3[C@H]2O)c(=O)[nH]1 [cGMP]	–
–	CS(=O)(=O)Nc1ccc2oc3c(OC(F)F)ccc(C(=O)Nc4c(Cl)cncc4Cl)c3c2c1 [GRC3886]	no emetic effect
